Counter-ions that a name gives are not always drawn.
System: APP/PS1/Tau mice
Test: Morris water maze test
Assay type: in vivo
Conditions: for Time in the target quadrant / Times of crossing over the platform / latent period: APP/PS1/Tau mice, intragastric daily for 8 weeks, testing Day 6, n = 10, BTMP 200 mg/kg, VB1 200 mg/kg, donepezil hydrochloride 1.5 mg/kg, ½BTMP 100 mg/kg; for spatial memory and learning ability of the AD mice (result in words): Morris water maze, compared with the model group
Source text: In water, rodents have a strong motivation to escape from the water environment, and can escape from the water environment in the fastest and most direct way. The process of learning to escape from the water environment reflects the learning ability of animals. Spatial positioning according to the surrounding environment and swimming to a safe place in the water (such as a platform) on purpose can reflect the spatial learning and memory ability of animals.
The test animals were male APP/PS1/Tau mice and C57BL/6 wild type mice. The mice were 8 months old, weighing […], and purchased from The Jackson laboratory.
App/PS1/Tau mice are APP/PS1/tau triple transgenic Alzheimer's disease (3×Tg-AD) model mice, whose AO deposition occurs several months earlier than the pathological change of the tau protein, and can more realistically simulate the clinical process and pathological changes of Alzheimer's disease.
Preparation of a 10 mg/ml vitamin B1 solution (dosage: 200 mg/kg): 500 mg of vitamin B1 was weighed, and 0.7% m/v CMC-Na was added to reach 50 ml, to obtain a 10 mg/ml solution.
Preparation of a 10 mg/ml BTMP suspension (dosage: 200 mg/kg): 500 mg of BTMP was weighed, and 0.7% m/v CMC-Na was added to reach 50 ml, to obtain a 10 mg/ml BTMP suspension.
Preparation of a 0.075 mg/ml donepezil hydrochloride suspension (dosage: 1.5 mg/kg): one donepezil hydrochloride tablet (containing 5 mg donepezil hydrochloride) was ground, and 0.7% m/v CMC-Na was added to reach 66.67 ml, to obtain a 0.075 mg/ml donepezil hydrochloride suspension.
(§1) Preparation of a 10 mg/ml BTMP suspension+0.075 mg/ml donepezil hydrochloride suspension (dosage: 200 mg/kg BTMP suspension+1.5 mg/kg donepezil hydrochloride suspension): a 20 mg/ml BTMP suspension and a 0.15 mg/ml donepezil hydrochloride suspension were respectively prepared, and equal volumes were evenly mixed before administration, to obtain a 10 mg/ml BTMP suspension+0.075 mg/ml donepezil hydrochloride suspension.
as §1, with “5” for “10”, “100” for “200”, “10” for “20”
The mice in the blank control group, the model group and the test groups were intragastrically administered according to the dosage/specification in 2.2. for 8 weeks, and the water maze training and testing were started in the last week of the administration. The water maze training and testing lasted for 6 days, with 5 days of training and 1 day of testing. In addition, during the water maze training and testing period (6 days in total), conditions such as the indoor lighting etc. were kept constant, and the room was kept quiet, so as to eliminate the interference of the environment and personnel.
(1) Pre-test preparation: an appropriate amount of water was placed in a water maze pool with water temperature being kept at 22±3° C., a platform was placed at a fixed position (the target quadrant) and 1 cm below the water surface, and titanium dioxide was added until water color was white, and the platform could not be seen clearly.
(2) Training period (Day 1 to Day 5): each mouse was placed on the platform for 15 s (to increase the mouse's sense of security on the platform) prior to the first quadrant training on each day, and then the mouse was placed in the quadrant where the platform located in the pool (head towards the wall), and a swimming time of 60 s was set. If it found the platform within 60 s and stayed for 5 s, it was considered as a success in finding the platform.
After the first quadrant training, the training in the remaining three quadrants was performed in turn, wherein it is not necessary to place the mice on the platform and hold for 15 s before training.

SMILES | Time in the target quadrant | Times of crossing over the platform | latent period | spatial memory and learning ability of the AD mice (result in words)
Cc1ncc(C[n+]2csc(CCO)c2C)c(N)n1 [VB1, vitamin B1] | 11.87 ± 1.17^*#& s | 1.00 ± 0.67^*& | 35.10 ± 4.09^*#& s | did not significantly improve
COc1cc2c(cc1OC)C(=O)C(CC1CCN(Cc3ccccc3)CC1)C2 (stereo not drawn) [Donepezil hydrochloride, donepezil hydrochloride] | 14.44 ± 1.11 s | 1.80 ± 0.79 | 27.80 ± 2.04 s | significantly improved
C/C(=C(\CCOP(=O)(O)O)SC(=O)c1ccccc1)N(C=O)Cc1cnc(C)nc1N [BTMP, S-2-[[(2-methyl-4-amino-5-pyrimidinyl)methyl]formylamino]-5-phosphonooxy-2,3-pentenyl-3-mercaptobenzoate] | 14.96 ± 1.50 s | 2.10 ± 0.74 | 26.10 ± 1.85 s | significantly improved
